Measured values taken from patent US7662553B2, “Polymorphisms in the ERCC1 gene for predicting treatment outcome” (University of Southern California, priority 2002, dated 2010).

Key:
[1] = system: locally advanced rectal cancer; assay: Time to local recurrence after adjuvant pelvic irradiation plus 5-FU infusion (Example 1); format: in vivo, human
Description: Methods: Seventy-three (73) patients with locally advanced rectal cancer (UICC stage II and III) were selected. They had been previously treated with adjuvant pelvic irradiation (45 Gy) to the whole pelvis with an additional boost up to 54 Gy plus 5-FU infusion therapy following tumor resection tissue acquisition during surgery. QRT-PCR (a fluorescence-based, quantitative real-time detection method (Taqman®)) was performed on RNA extracted from formalin-fixed, paraffin-embedded, laser-capture-microdissected tissue to establish gene expression levels. The mRNA was reverse transcribed to cDNA and the genes of interest were quantified as well as an internal reference gene (β-Actin) as a control. All gene expression levels were log-transformed prior to analysis. The maximal c^2 method of Miller, Siegmund (Miller R. and Siegmund D. Biometrics (1982) 38:1011-1016) and Halpem (Halpem J. (1982) Biometrics 38:1017-1023) was used to determine which gene expression best segregated patients into poor- and good-prognosis subgroups 2000 bootstrap-like simulations were used to estimate the distribution of the maximal c^2 statistics under the null hypothesis of no association.

[2] = system: locally advanced rectal cancer; assay: Pelvic recurrence after 5-FU and pelvic radiation by TS promoter genotype (Example 2); format: in vivo, human; details: pre- or post-operative 5-FU and pelvic radiation
Description: Methods: Forty-three (43) patients with locally advanced rectal cancer, who were treated with either pre-operative or post-operative 5-FU and pelvic radiation were analyzed. Genomic DNAs were extracted from paraffin-embedded tissue samples. Patients' genotype for the TS polymorphism was determined by polymerase chain reaction (PCR) amplification of TS promoter region.

SMILES	Probability ± SE of 5-yr recurrence ([1]; total patients n=73, UICC stage II and III, pelvic irradiation 45 Gy with boost up to 54 Gy plus 5-FU infusion after resection)	Median time to recurrence ([1]; total patients n=73, pelvic irradiation plus 5-FU infusion after resection)	Pelvic recurrences, patients ([2]; TS (2/2) and (2/3) genotypes)	Pelvic recurrences, patients ([2]; TS (3/3) genotype)	Effect on neurotoxicity in patients treated with oxaliplatin (celebrex 200-400 mg day, p<0.01)	Patients who developed grade II or III neurotoxicity (of 56 patients with celebrex therapy in combination with oxaliplatin/5-FU chemotherapy)
O=c1[nH]cc(F)c(=O)[nH]1 [5-FU, 5-fluorouracil]	0.53 ± 0.08	57.0 Month	37%	87%	–	–
Cc1ccc(-c2cc(C(F)(F)F)nn2-c2ccc(S(N)(=O)=O)cc2)cc1 [celebrex]	–	–	–	–	protecting against neurotoxicity	3 patients
